Values joined by “and” are separate entries in the source; they are usually repeats but may differ in a detail not shown here. Equal entries are not always repeated. “Also recorded” adds a separate entry of the source. Peptide text beside a SMILES is read from it. * marks the point of attachment. Cbz = O=C(OCc1ccccc1)*
Key:
Format in all cases: cell-based, human
TDP-43-BiFC cells [1] = experiment: BiFC fluorescence analysis of TDP-43 oligomer formation in TDP-43-BiFC cells (384-well, Operetta); conditions: 48 hours at 37° C.; for increase of BiFC fluorescence in the cells compared to untreated cells: forskolin 30 μM, scriptaid 3 μM, thapsigargin 1 μM, ionomycin 1 μM, Cu^2+ 1 μM, Zn^2+ 30 μM; for change in BiFC fluorescence of TDP-43 (in words): MG132 5 μM, α-synuclein 5 μg/ml, tauK18^P301L 5 μg/ml
Description: In order to develop a TDP-43-BiFC cell line, the TDP-43-VN173 and TDP-43-VC155 constructs shown in FIG. 2 were co-transfected into HEK293 BiFC cells. For establishment of a stable cell line, the transfected cells were selected by culture with growth medium containing 100 μg/mL geneticin (G418; Sigma). In addition, the selected cells were sorted using FACSAria (BD Bioscience) into cells showing fluorescence. The sorted TDP-43-BiFC cells were kept in DMEM medium containing 10% FBS, 100 units/mL penicillin, 100 μg/mL streptomycin and 100 μg/mL G418 in a humidified atmosphere at 37° C. under 5% CO2.
The TDP-43-BiFC cells prepared in Example 1 above were treated with a compound that induces PTMs of protein, a compound that ER stress in cells, amyloid protein, metal ions, or the like, and changes in BiFC fluorescence in the cells were examined. Specifically, for fluorescence analysis, the TDP-43-BiFC cells were grown in a 384-well plate and treated with each of forskolin (30 μM), scriptaid (3 μM), thapsigargin (1 μM), ionomycin (1 μM), MG132 (5 μM), α-synuclein (5 μg/ml), tauK18^P301L (5 μg/ml), Cu^2+ (1 μM) and Zn^2+ (30 μM), followed by culture at 37° C. for 48 hours. Fluorescence images were obtained using Operetta® (PerkinElmer), and the fluorescence intensity in the nucleus and the cytoplasmic fluorescence intensity were analyzed using Harmony3.1 software (PerkinElmer).

TDP-43-BiFC cells [2] = experiment: Intracellular distribution of BiFC fluorescence, high-magnification imaging; conditions: treated as in Example 2 (scriptaid 3 μM, 48 hours); 1000× magnification
Description: Next, the pattern of intracellular distribution by an increase in TDP-43 oligomer formation was examined. Specifically, TDP-43 formation was induced in the same manner as Example 2 above, and then the whole plate was automatically imaged using Operetta®, and high-resolution images were obtained using a Nikon Eclipse inverted microscope (Ti, Nikon) at 1000× magnification.

TDP-43-BiFC cells [3] = experiment: Isolation of TDP-43 oligomer with GFP-trap beads and immunoblot with anti-TDP-43 antibody; conditions: 24 hours at 37° C., forskolin 30 μM, scriptaid 1 μM, thapsigargin 0.5 μM, ionomycin 1 μM, SDS-PAGE, immunoblot
Description: Lysates of the TDP-43-BiFC cells treated with each of the four drugs in Example 3 and a lysate of untreated cells were prepared and TDP-43 oligomers were isolated therefrom. Specifically, TDP-43-BiFC cells were grown in a 6-well plate, treated with each of forskolin (30 μM), scriptaid (1 μM), thapsigargin (0.5 μM) and ionomycin (1 μM), and cultured at 37° C. for 24 hours, and then lysates of the cells were prepared. GFP-trap beads shown in FIG. 5a were added to the lysates which were then incubated at 4° C. for 16 hours, and the oligomerized TDP-43 protein was isolated. The isolated protein was separated by SDS-PAGE, and immunoblot analysis was performed using anti-TDP-43 antibody.

[Cu+2] [Cu^2+]
increase of BiFC fluorescence in the cells compared to untreated cells (TDP-43-BiFC cells [1]): about 2 fold

CC(C)C[C@@H](C=O)NC(=O)[C@H](CC(C)C)NC(=O)[C@H](CC(C)C)NC(=O)OCc1ccccc1 [MG132] (Cbz-Leu-Leu-Leu-aldehyde)
change in BiFC fluorescence of TDP-43 (in words) (TDP-43-BiFC cells [1]): no change

[Zn+2] [Zn^2+]
increase of BiFC fluorescence in the cells compared to untreated cells (TDP-43-BiFC cells [1]): about 2 fold

C[C@H](CCC(=O)O)C[C@H](C)C[C@H](C)C(=O)/C=C(\O)[C@H](C)C[C@H](C)C/C=C/[C@@H](C)[C@@H](O)[C@@H](C)[C@@H](O)C[C@@H]1CC[C@@](C)([C@H]2CC[C@@](C)([C@@H](C)O)O2)O1 [ionomycin]
increase of BiFC fluorescence in the cells compared to untreated cells (TDP-43-BiFC cells [1]): 7 fold

O=C(CCCCCN1C(=O)c2cccc3cccc(c23)C1=O)NO [scriptaid]
increase of BiFC fluorescence in the cells compared to untreated cells (TDP-43-BiFC cells [1]): 36 fold and 48 fold | distribution of BiFC fluorescence in nucleus and cytoplasm (TDP-43-BiFC cells [2]): greatly increased the fluorescence not only in the nucleus but also in the cytoplasm; also recorded: significantly increased not only in the nucleus but also in the cytoplasm | amount of detected oligomerized TDP-43 protein compared to untreated cells (TDP-43-BiFC cells [3]): largest amount

C/C=C(/C)C(=O)O[C@H]1C(C)=C2[C@H]([C@@H]1OC(=O)CCCCCCC)[C@@](C)(OC(C)=O)C[C@H](OC(=O)CCC)[C@@]1(O)[C@H]2OC(=O)[C@@]1(C)O [thapsigargin]
increase of BiFC fluorescence in the cells compared to untreated cells (TDP-43-BiFC cells [1]): 31 fold

tauK18^P301L
change in BiFC fluorescence of TDP-43 (in words) (TDP-43-BiFC cells [1]): did not increase

α-synuclein
change in BiFC fluorescence of TDP-43 (in words) (TDP-43-BiFC cells [1]): did not increase
